Results reported in patent US10117944B2, “Targeted therapeutics” (Madrigal Pharmaceuticals, Inc., priority 2014, dated 2018).

What was measured:
HER2 = HER2 degradation assay with BT-474 cell line; type: cell-based, human; conditions: BT-474 cells, overnight incubation
[1] = Stability of SDC-TRAPs in mouse plasma; type: in vitro ADME; conditions: 37° C.
Method: SDC-TRAPs were incubated in mouse plasma for 1 h at 37° C. and assayed for integrity at 0, 0.25, 0.5 and 1 h to assess the stability of the SDC-TRAP, e.g., as compared to the effector and targeting compounds. Compound stability was determined using […].

[2] = phase I trial; cited from earlier work
[3] = estimated; cited from earlier work

IC50 (HER2) [nM] | % Remaining (1 h) [1] [%] | SMILES | Dose at which dose-limiting toxic effects are observed [2] [mg/m^2] | Patients presenting with peripheral neuropathy [3]
100 | 62.9 | CCNC(=O)c1nnc(-c2cc(C(C)C)c(O)cc2O)n1-c1ccc(C(=O)N(C)CC[C@]23OB([C@H](CC(C)C)NC(=O)[C@H](Cc4ccccc4)NC(=O)c4cnccn4)O[C@H]2C[C@H]2C[C@@H]3C2(C)C)cc1 [SDC-TRAP-0244, N—((S)-1-(((R)-1-((3aR,4R,6R,7aS)-3a-(2-(4-(3-(2,4-dihydroxy-5-isopropylphenyl)-5-(ethylcarbamoyl)-4H-1,2,4-triazol-4-yl)-N-methylbenzamido)ethyl)-5,5-dimethylhexahydro-4,6-methanobenzo[d][1,3,2]dioxaborol-2-yl)-3-methylbutyl)amino)-1-oxo-3-phenylpropan-2-yl)pyrazine-2-carboxamide] |  | 
110 | 63.6 | CCNC(=O)c1nnc(-c2cc(C(C)C)c(O)cc2O)n1-c1ccc(Oc2ccc(C(=O)NCCCCCCC3(C)OB([C@H](CC(C)C)NC(=O)[C@H](Cc4ccccc4)NC(=O)c4cnccn4)OC3(C)C)cc2)cc1 (stereo partly drawn) [SDC-TRAP-0246, N-((2S)-1-(((1R)-1-(4-(6-(4-(4-(3-(2,4-dihydroxy-5-isopropylphenyl)-5-(ethylcarbamoyl)-4H-1,2,4-triazol-4-yl)phenoxy)benzamido)hexyl)-4,5,5-trimethyl-1,3,2-dioxaborolan-2-yl)-3-methylbutyl)amino)-1-oxo-3-phenylpropan-2-yl)pyrazine-2-carboxamide] |  | 
36 | 11.8 | CCNC(=O)c1nnc(-c2cc(C(C)C)c(O)cc2O)n1-c1ccc(C(=O)NCCCCCCC2(C)OB([C@H](CC(C)C)NC(=O)[C@H](Cc3ccccc3)NC(=O)c3cnccn3)OC2(C)C)cc1 (stereo partly drawn) [SDC-TRAP-0247, N-((2S)-1-(((1R)-1-(4-(6-(4-(3-(2,4-dihydroxy-5-isopropylphenyl)-5-(ethylcarbamoyl)-4H-1,2,4-triazol-4-yl)benzamido)hexyl)-4,5,5-trimethyl-1,3,2-dioxaborolan-2-yl)-3-methylbutyl)amino)-1-oxo-3-phenylpropan-2-yl)pyrazine-2-carboxamide] |  | 
37 | 54.8 | CCNC(=O)c1nnc(-c2cc(C(C)C)c(O)cc2O)n1-c1ccc(Oc2ccc(C(=O)NCC[C@]34OB([C@H](CC(C)C)NC(=O)[C@H](Cc5ccccc5)NC(=O)c5cnccn5)O[C@H]3C[C@@H]3C[C@H]4C3(C)C)cc2)cc1 [SDC-TRAP-0248, N—((S)-1-(((R)-1-((3aR,4S,6S,7aS)-3a-(2-(4-(4-(3-(2,4-dihydroxy-5-isopropylphenyl)-5-(ethylcarbamoyl)-4H-1,2,4-triazol-4-yl)phenoxy)benzamido)ethyl)-5,5-dimethylhexahydro-4,6-methanobenzo[d][1,3,2]dioxaborol-2-yl)-3-methylbutyl)amino)-1-oxo-3-phenylpropan-2-yl)pyrazine-2-carboxamide] |  | 
36 | 8.93 | CCNC(=O)c1nnc(-c2cc(C(C)C)c(O)cc2O)n1-c1ccc(Oc2ccc(C(=O)N3CCC4(CC3)OB([C@H](CC(C)C)NC(=O)[C@H](Cc3ccccc3)NC(=O)c3cnccn3)OC4(C)C)cc2)cc1 [SDC-TRAP-0249, N—((S)-1-(((R)-1-(8-(4-(4-(3-(2,4-dihydroxy-5-isopropylphenyl)-5-(ethylcarbamoyl)-4H-1,2,4-triazol-4-yl)phenoxy)benzoyl)-4,4-dimethyl-1,3-dioxa-8-aza-2-boraspiro[4.5]decan-2-yl)-3-methylbutyl)amino)-1-oxo-3-phenylpropan-2-yl)pyrazine-2-carboxamide] |  | 
2120 | 27.0 | CC(C)C[C@H](NC(=O)[C@H](Cc1ccccc1)NC(=O)c1cnccn1)B1OC(C)(C)C2(CCN(C(=O)CCn3ccc4cc(-n5c(O)nnc5-c5cc(C(C)C)c(O)cc5O)ccc43)CC2)O1 [SDC-TRAP-0250, N—((S)-1-(((R)-1-(8-(3-(5-(3-(2,4-dihydroxy-5-isopropylphenyl)-5-hydroxy-4H-1,2,4-triazol-4-yl)-1H-indol-1-yl)propanoyl)-4,4-dimethyl-1,3-dioxa-8-aza-2-boraspiro[4.5]decan-2-yl)-3-methylbutyl)amino)-1-oxo-3-phenylpropan-2-yl)pyrazine-2-carboxamide] |  | 
> 5000 | 13.4 | CCNC(=O)c1nnc(-c2cc(C(C)C)c(O)cc2O)n1-c1ccc(C(=O)N2CCC3(CC2)OB([C@H](CC(C)C)NC(=O)[C@H](Cc2ccccc2)NC(=O)c2cnccn2)OC3(C)C)cc1 [SDC-TRAP-0251, N—((S)-1-(((R)-1-(8-(4-(3-(2,4-dihydroxy-5-isopropylphenyl)-5-(ethylcarbamoyl)-4H-1,2,4-triazol-4-yl)benzoyl)-4,4-dimethyl-1,3-dioxa-8-aza-2-boraspiro[4.5]decan-2-yl)-3-methylbutyl)amino)-1-oxo-3-phenylpropan-2-yl)pyrazine-2-carboxamide] |  | 
 |  | CC(C)C[C@H](NC(=O)[C@H](Cc1ccccc1)NC(=O)c1cnccn1)B(O)O [bortezomib] | 1.5 | more than 40%
